Source: article PMC8151276, “An Integrated Approach toward NanoBRET Tracers for Analysis of GPCR Ligand Engagement” (Molecules, 2021)

Experiments:
Format in all cases: binding
MC2R = molecular target: T1, MC2R (Homo sapiens, UniProt Q01718); assay: NanoBRET screen HiBiT-MC2R in HEK293
T1 construct: purchased Promega (in-house HiBiT-GPCR construct library, NanoBRET)
Protocol: (§1) Each tracer candidate was screened across the entire library of HiBiT-GPCR constructs using NanoBRET as the detection modality. As depicted in Figure 4A, the specificity of interactions was evaluated through decrease in BRET due to competitive displacement of a bound tracer by excess parental compound. Each tracer was analyzed for binding to each HiBiT-GPCR fusion in the absence and in the presence of competing parental compound. Briefly, HEK293 cells were transfected with HiBiT-GPCR constructs diluted into promoterless DNA to reduce expression and maximize translocation to the cell surface. Each tracer candidate was then screened at concentrations of 1 μM and 0.1 μM across cells expressing these fusions. Cells were treated for 1.5 h with tracer either alone or in the presence of 20 μM competing parental compound (i.e., control). BRET was measured upon addition of purified LgBiT and subsequent complementation with HiBiT genetically fused to a GPCR. The specificity of interactions was assessed through a decrease in BRET signal due to competitive displacement of the bound tracer. To further gauge the robustness of these interactions, the fold response over the control (i.e., BRETtracer/BRETcontrol) was calculated. We chose a 1.5-fold response, which translates to ≥7-fold signal over noise as the minimal threshold required to score an interaction as positive.
(§2) HiBiT-GPCR DNA constructs were diluted in 10 mM Tris pH 8 to a final concentration of 0.01 μg/μL, arrayed in 96-well plates and stored at −20 °C. For transfection, HEK293 cells were suspended in Opti-MEM (without phenol red) supplemented with 2% fetal bovine serum (Seradigm) and 100 units/mL penicillin–streptomycin (Gibco) at a final concentration of 220,000 cells/mL and dispensed into white 96-well plates at 90 μL/well. Subsequent transfections and screens were carried using an Agilent Bravo Automated Liquid Handling Platform. First, the 96-well HiBiT DNA arrays were diluted 25-fold in Opti-MEM (without serum or phenol red) to a final concentration of 0.0004 μg/μL and 20 μL of the diluted DNAs were transferred into new 96-well plates. Next, promoterless carrier DNA (1 μg/μL) was diluted 25-fold (0.04 μg/μL) and then dispensed into the diluted arrays at 20 μL/well. Following brief mixing, Viafect transfection reagent (Promega) diluted 16-fold into Opti-MEM was dispensed into the plates at 40 μL/well. After mixing by pipetting, plates were incubated for 10 min on the pipetting station deck. The DNA-transfection reagent complexes were then added to plates containing cells. To facilitate the screen, 10 μL of DNA-transfection reagent complexes were added in duplicates to the top 4 and bottom 4 rows, resulting in two identical 48-well arrays per plate. Plates with transfected cells were incubated for 18–20 h at 37 °C/5% CO2. A screen of each tracer across the entire library using two different concentrations requires duplicate plates of transfected cells. Depending on the number of tracers being screened, transfections can be scaled up using the same ratios. The next day, for each tracer, four 20× screening solutions in tracer dilution buffer (Promega) were prepared: two duplicates at final concentration of 20 μM and two duplicates at a final concentration of 2 μM. […] The four resulting solutions were diluted 4-fold in Opti-MEM without serum or phenol red to generate 5× solutions (5 µM and 0.5 µM tracer +/− 100 μM competing compound). To screen the library, a BioTek MultiFlo FX liquid dispenser was used to dispense 22.5 µL of tracer solution to the top 4 rows and 22.5 µL tracer + competing compound solution to the 4 bottom rows. Plates were briefly mixed on an orbital shaker and incubated for 1.5 h at room temperature. […] Plates were briefly mixed on an orbital shaker and incubated for 15 min to allow complementation.

ADRB1 = molecular target: T2, ADRB1 (Homo sapiens, UniProt P08588); assay: NanoBRET screen HiBiT-ADRB1 in HEK293
T2 construct: purchased Promega (in-house HiBiT-GPCR construct library, NanoBRET)

FZD10 = molecular target: T3, FZD10 (Homo sapiens, UniProt Q9ULW2); assay: NanoBRET screen HiBiT-FZD10 in HEK293
T3 construct: purchased Promega (in-house HiBiT-GPCR construct library, NanoBRET)
T3 sequence (Q9ULW2 21-581): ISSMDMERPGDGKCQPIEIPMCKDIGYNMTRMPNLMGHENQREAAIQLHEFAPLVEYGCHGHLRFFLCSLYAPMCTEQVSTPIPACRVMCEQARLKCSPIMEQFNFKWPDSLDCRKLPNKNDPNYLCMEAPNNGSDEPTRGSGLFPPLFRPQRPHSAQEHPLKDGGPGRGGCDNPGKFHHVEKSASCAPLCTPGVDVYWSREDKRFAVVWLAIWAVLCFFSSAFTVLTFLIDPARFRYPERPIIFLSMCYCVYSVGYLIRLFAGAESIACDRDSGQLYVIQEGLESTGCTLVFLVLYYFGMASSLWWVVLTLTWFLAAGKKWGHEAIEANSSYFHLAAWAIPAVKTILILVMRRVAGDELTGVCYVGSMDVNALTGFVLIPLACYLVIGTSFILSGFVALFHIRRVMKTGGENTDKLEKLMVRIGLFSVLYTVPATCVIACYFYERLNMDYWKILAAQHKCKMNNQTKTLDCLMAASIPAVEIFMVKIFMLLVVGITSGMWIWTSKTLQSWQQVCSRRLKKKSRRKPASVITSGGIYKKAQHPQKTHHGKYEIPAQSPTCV
Protocol: as §1, §2

T2 sequence (P08588 whole entry): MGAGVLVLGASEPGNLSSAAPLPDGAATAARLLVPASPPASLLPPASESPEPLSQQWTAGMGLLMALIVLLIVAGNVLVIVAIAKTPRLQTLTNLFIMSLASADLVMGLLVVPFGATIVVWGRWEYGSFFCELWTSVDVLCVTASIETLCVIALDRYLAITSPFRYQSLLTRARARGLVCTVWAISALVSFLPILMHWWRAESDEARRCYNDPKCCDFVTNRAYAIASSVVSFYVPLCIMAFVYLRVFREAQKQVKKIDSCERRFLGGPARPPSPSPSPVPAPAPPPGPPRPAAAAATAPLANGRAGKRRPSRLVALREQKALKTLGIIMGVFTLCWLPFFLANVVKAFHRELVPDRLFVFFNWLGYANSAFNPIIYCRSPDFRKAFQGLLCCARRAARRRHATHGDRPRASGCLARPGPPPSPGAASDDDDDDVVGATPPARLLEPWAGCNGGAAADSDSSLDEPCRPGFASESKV
T1 sequence (Q01718 whole entry): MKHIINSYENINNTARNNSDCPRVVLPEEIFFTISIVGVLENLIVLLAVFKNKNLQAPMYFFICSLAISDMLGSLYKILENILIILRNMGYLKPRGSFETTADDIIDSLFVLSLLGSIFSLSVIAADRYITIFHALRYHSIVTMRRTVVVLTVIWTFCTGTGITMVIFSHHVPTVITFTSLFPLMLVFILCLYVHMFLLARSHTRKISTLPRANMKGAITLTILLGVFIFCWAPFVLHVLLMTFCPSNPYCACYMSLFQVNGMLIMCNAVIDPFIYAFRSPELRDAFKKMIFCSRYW

| Compound | NanoBRET Fold Response (MC2R; MC2R, tracer 0.1μM) | NanoBRET Fold Response (MC2R; MC2R, tracer 1μM) | NanoBRET Fold Response (ADRB1; ADRB1, tracer 0.1μM) | NanoBRET Fold Response (ADRB1; ADRB1, tracer 1μM) | NanoBRET Fold Response (FZD10; FZD10, tracer 0.1μM) | NanoBRET Fold Response (FZD10; FZD10, tracer 1μM) | also measured |
| --- | --- | --- | --- | --- | --- | --- | --- |
| O=C(CCc1ccc2n1[B-](F)(F)[N+]1=C(c3ccc[nH]3)C=CC1=C2)NCc1ccc(C(=O)NCCOCCC(=O)N[C@@H]2CC[C@@]3(O)[C@H]4Cc5ccc(O)c6c5[C@@]3(CCN4CC3CC3)[C@H]2O6)cc1 [Naltrexone-3-NB590] | 0.75 | 1.15 | 1.34 | 0.83 | 0.66 | 1.06 | – |
| CCCn1c(=O)c2[nH]c(-c3ccc(OCC(=O)NCCNC(=O)CCOCCNC(=O)c4ccc(CNC(=O)CCc5ccc6n5[B-](F)(F)[N+]5=C(c7ccc[nH]7)C=CC5=C6)cc4)cc3)nc2n(CCC)c1=O [XAC-3-NB590] | 1.02 | 1.05 | 1.07 | 1.05 | 1.05 | 0.99 | – |
| CC(C)N(CC[C@H](c1ccccc1)c1cc(CCNC(=O)c2ccc(CNC(=O)CCc3ccc4n3[B-](F)(F)[N+]3=C(c5ccc[nH]5)C=CC3=C4)cc2)ccc1O)C(C)C [Tolterodine-BZ-NB590] | 0.88 | 1.06 | 1.02 | 1.10 | 0.97 | 1.06 | – |
| N#CN/C(=N\CCNC(=O)c1ccc(N)cc1)NCCCOc1cccc(CN2CCCCC2)c1 [Aminopotentidine (unmodified)] | – | – | – | – | – | – | NanoBRET Fold Response (ADRB1; ADRB1, other tracers/Aminopotentidine (unmodified), 0.1μM): 1.01; NanoBRET Fold Response (ADRB1; ADRB1, other tracers/Aminopotentidine (unmodified), 1μM): 1.07 |
| COc1ccc2[nH]c(-c3ccc(CNC(=O)CCOCCOCCOCCOCCNC(=O)CCc4ccc5n4[B-](F)(F)[N+]4=C(c6ccc[nH]6)C=CC4=C5)cc3)c(CCNC(C)=O)c2n1 [AzomelatoninICO9-2-NB590] | – | – | – | – | – | – | NanoBRET Fold Response (MC2R; 0.1μM tracer): 0.93; NanoBRET Fold Response (MC2R; 1μM tracer): 1.16; NanoBRET Fold Response (ADRB1; 0.1μM tracer): 0.84; NanoBRET Fold Response (ADRB1; 1μM tracer): 0.96; NanoBRET Fold Response (FZD10; 0.1μM tracer): 0.96; NanoBRET Fold Response (FZD10; 1μM tracer): 0.89 |
| CN1CCN(C2=Nc3cc(Cl)ccc3N(CC(=O)NCCOCCOCCOCCOCCNC(=O)CCc3ccc4n3[B-](F)(F)[N+]3=C(c5ccc[nH]5)C=CC3=C4)c3ccccc32)CC1 [Clozapine-c-2-NB590] | – | – | – | – | – | – | NanoBRET Fold Response (MC2R; MC2R, 0.1μM tracer): 0.99; NanoBRET Fold Response (MC2R; MC2R, 1μM tracer): 1.11; NanoBRET Fold Response (ADRB1; ADRB1, 0.1μM tracer): 1.02; NanoBRET Fold Response (ADRB1; ADRB1, 1μM tracer): 0.94; NanoBRET Fold Response (FZD10; FZD10, 0.1μM tracer): 1.00 |
| COc1ccccc1N1CCN(CCCCN2C(=O)c3ccc(CNC(=O)CCOCCNC(=O)c4ccc(CNC(=O)CCc5ccc6n5[B-](F)(F)[N+]5=C(c7ccc[nH]7)C=CC5=C6)cc4)cc3C2=O)CC1 [NAN-190-3-NB590] | 1.02 | 0.96 | – | – | 0.92 | 0.79 | – |
| Cc1nc2n(c(=O)c1CCN1CCC(c3noc4cc(F)ccc34)CC1)CCCC2OC(=O)NCCOCCOCCOCCOCCNC(=O)CCc1ccc2n1[B-](F)(F)[N+]1=C(c3ccc[nH]3)C=CC1=C2 (stereo not shown) [Risperidone-2-NB590] | 1.04 | 1.06 | 0.98 | 1.05 | 1.00 | 1.04 | – |
| O=C(CCOCCOCCOCCOCCNC(=O)CCc1ccc2n1[B-](F)(F)[N+]1=C(c3ccc[nH]3)C=CC1=C2)NCCCN1CCN(C2=Nc3ccccc3Oc3ccc(Cl)cc32)CC1 [Loxapine-a-2-NB590] | 0.99 | 1.11 | 0.97 | 0.97 | 0.98 | 0.99 | – |
| COc1ccccc1N1CCN(CCCCN2C(=O)c3ccc(CNC(=O)CCOCCOCCOCCOCCNC(=O)CCc4ccc5n4[B-](F)(F)[N+]4=C(c6ccc[nH]6)C=CC4=C5)cc3C2=O)CC1 [NAN-190-2-NB590] | 0.96 | – | – | – | 0.99 | 1.04 | – |
| CC(C)N(CC[C@H](c1ccccc1)c1cc(CCNC(=O)CCOCCOCCOCCOCCNC(=O)CCc2ccc3n2[B-](F)(F)[N+]2=C(c4ccc[nH]4)C=CC2=C3)ccc1O)C(C)C [Tolterodine-2-NB590] | 1.08 | 1.10 | 1.09 | 0.99 | – | 1.05 | – |
| N#CN=C(NCCCOc1cccc(CN2CCCCC2)c1)NCCNC(=O)CCOCCOCCOCCOCCNC(=O)CCc1ccc2n1[B-](F)(F)[N+]1=C(c3ccc[nH]3)C=CC1=C2 [Aminopotentidine-2-NB590] | 0.97 | 0.92 | 1.01 | 0.99 | 0.99 | 0.99 | – |
| CCOC(=O)c1cc(C#N)c(N2CCC(C(=O)NS(=O)(=O)Cc3ccccc3/C=C/C(=O)NCCNC(=O)CCc3ccc4n3[B-](F)(F)[N+]3=C(c5ccc[nH]5)C=CC3=C4)CC2)nc1C [AZD1283-1-NB590] | – | – | – | – | – | – | NanoBRET Fold Response (MC2R; MC2R, 0.1μM): 0.94; NanoBRET Fold Response (MC2R; MC2R, 1μM): 1.02; NanoBRET Fold Response (ADRB1; ADRB1, 0.1μM): 1.05; NanoBRET Fold Response (ADRB1; ADRB1, 1μM): 1.09; NanoBRET Fold Response (FZD10; FZD10, 0.1μM): 1.01; NanoBRET Fold Response (FZD10; FZD10, 1μM): 1.02 |
| CN(C)CCC=C1c2ccccc2CCc2ccc(C(=O)NCCNC(=O)CCOCCOCCOCCOCCNC(=O)CCc3ccc4n3[B-](F)(F)[N+]3=C(c5ccc[nH]5)C=CC3=C4)cc21 [Amitriptyline-a-2-NB590] | – | – | – | – | – | – | NanoBRET Fold Response (ADRB1; tracer at 0.1μM): 1.05; NanoBRET Fold Response (ADRB1; tracer at 1μM): 1.18; NanoBRET Fold Response (FZD10; tracer at 0.1μM): 0.97; NanoBRET Fold Response (FZD10; tracer at 1μM): 1.01 |
| CN(CCC=C1c2ccccc2CCc2ccccc21)C(=O)CCOCCOCCOCCOCCNC(=O)CCc1ccc2n1[B-](F)(F)[N+]1=C(c3ccc[nH]3)C=CC1=C2 [Amitriptyline-e-2-NB590] | – | – | – | – | – | – | NanoBRET Fold Response (ADRB1; tracer at 1μM): 0.95; NanoBRET Fold Response (FZD10; tracer at 1μM): 1.01 |
| O=C(CCc1ccc2n1[B-](F)(F)[N+]1=C(c3ccc[nH]3)C=CC1=C2)NCc1ccc(C(=O)NCCOCCOCCNCC(O)COc2cccc3ccccc23)cc1 (stereo not shown) [Propranolol-3-NB590] | – | – | – | – | – | – | NanoBRET Fold Response (MC2R; MC2R, 1μM): 1.03; NanoBRET Fold Response (FZD10; FZD10, 0.1μM): 1.04; NanoBRET Fold Response (FZD10; FZD10, 1μM): 1.02 |
